≈ marks a conversion by molar mass, not a printed value.
Tests used:
Streptococcus pneumoniae = assay: Antibacterial activity against Levofloxacin-nonsusceptible Streptococcus pneumoniae assessed as inhibition of bacterial growth by CLSI-based assay; assay type: functional
Staphylococcus aureus [1] = assay: Antibacterial activity against Staphylococcus aureus 456 infected in neutropenic BALB/c mouse model assessed as reduction in lung bacterial load at 1.56 to 400 mg/kg, sc administered every 6 hr and measured after 24 hrs by CLSI-based assay (reference value: 5.6 to 6.3 log10 CFU); assay type: functional; details: dose 1.56-400 mg/kg, pooled result: one value given for 6 cell lines, strains, targets or settings
Staphylococcus aureus [2] = assay: Antibacterial activity against levofloxacin-resistant Staphylococcus aureus assessed as inhibition of bacterial growth by CLSI-based assay; assay type: functional
Escherichia coli = assay: Antibacterial activity against Levofloxacin-nonsusceptible Escherichia coli assessed as inhibition of bacterial growth by CLSI-based assay; assay type: functional
Staphylococcus aureus [3] = assay: Antibacterial activity against Staphylococcus aureus assessed as inhibition of bacterial growth; assay type: functional
[4] = Drug absorption in Syrian hamster infected with Clostridioides difficile at 75 mg/kg, po by LC-MS analysis; assay type: ADME, organism-based, Mesocricetus auratus; details: in vivo, read-out: Drug absorption
[5] = Binding affinity to recombinant Clostridium difficile 630 DNA polymerase IIIC expressed in Escherichia coli Rosetta DE3pLysS cells assessed as inhibition constant incubated for 20 mins; set-up: species or system Clostridioides difficile 630
Clostridioides difficile [6] = assay: Antibacterial activity against Clostridium difficile clinical isolates assessed as inhibition of bacterial growth incubated for 48 hrs by CLSI-based assay; assay type: functional
Clostridioides difficile [7] = assay: Antibacterial activity against Clostridium difficile clinical isolates assessed as inhibition of bacterial growth; assay type: functional
[8] = Toxicity in Syrian hamster infected with clindamycin resistant Clostridium difficile ATCC 43596 assessed as animal survival at 5 mg/kg, po administered twice a day and measured after 25 days; assay type: organism-based, Mesocricetus auratus; details: in vivo, 600 h, time 25 day
[9] = Toxicity in Syrian hamster infected with clindamycin resistant Clostridium difficile ATCC 43596 assessed as survival rate at 5 mg/kg, po administered twice a day and measured after 33 days; assay type: organism-based, Mesocricetus auratus; details: in vivo, 792 h, time 33 day
[10] = Toxicity in Syrian hamster infected with clindamycin resistant Clostridium difficile ATCC 43596 assessed as survival rate at 0.5 mg/kg, po administered twice a day and measured after 33 days; assay type: organism-based, Mesocricetus auratus; details: in vivo, 792 h, time 33 day
Neisseria gonorrhoeae = assay: Antibacterial activity against Neisseria gonorrhoeae ATCC 49226 assessed as inhibition of bacterial growth by agar dilution method; assay type: functional
Chlamydia trachomatis = assay: Antibacterial activity against Chlamydia trachomatis assessed as inhibition of bacterial growth; assay type: functional
Mycoplasma genitalium = assay: Antibacterial activity against Mycoplasma genitalium assessed as inhibition of bacterial growth; assay type: functional; details: Mycoplasmoides genitalium

For O=c1ccc2ncc(=O)n3c2n1C[C@H]3CN1CCC(NCc2cc3c(cn2)OCCC3)CC1 [GEPOTIDACIN], the MIC90 (Streptococcus pneumoniae) was 0.5 µg/mL (≈ 1.11 µM), the Activity (Staphylococcus aureus [1]) was 1.4 log10CFU and the MIC90 (Staphylococcus aureus [2]) was 0.5 µg/mL (≈ 1.11 µM). The MIC90 (Escherichia coli) was 0.5 µg/mL (≈ 1.11 µM).
Molecule Cn1cc(NC(=O)c2cc(NC(=O)c3ccc(/C=C/c4cnc5ccccc5c4)cc3)cn2C)cc1C(=O)NCCN1CCOCC1 [MGB-BP-3] has an MIC80 (Staphylococcus aureus [3]) of less than 0.2 µM.
For O=c1[nH]c(NCc2ccc(Cl)c(Cl)c2)nc2ncn(CCN3CCOCC3)c12 [IBEZAPOLSTAT], the Fa [4] was 5%, the Ki [5] was 325 nM and the MIC50 (Clostridioides difficile [6]) was 2 µg/mL (≈ 4.72 µM). For the same molecule, the MIC (Clostridioides difficile [7]) was 1 µg/mL (≈ 2.36 µM).
In the case of Cc1ncc([N+](=O)[O-])n1CCO [METRONIDAZOLE], the MIC50 (Clostridioides difficile [6]) is reported as 1 µg/mL (≈ 5.84 µM) and the MIC (Clostridioides difficile [7]) is reported as 0.15 µg/mL (≈ 0.876 µM).
With Cl.Cl.O=c1cc(NCCCN[C@@H]2CCOc3c(Br)cc(Br)cc32)[nH]c2ccsc12 the Activity [8] was “Toxic”, the Survival [9] was 75% and the Survival [10] was 62%.
C[C@@H]1CN2c3c(cc4c(N5C(=O)OC[C@@H]5C)noc4c3F)CC3(C(=O)NC(=O)NC3=O)[C@H]2[C@H](C)O1 [ZOLIFLODACIN] showed an MIC90 (Neisseria gonorrhoeae) of 0.125 µg/mL (≈ 0.256 µM), an MIC (Chlamydia trachomatis) of 0.5 µg/mL (≈ 1.03 µM) and an MIC (Mycoplasma genitalium) of less than 1 µg/mL.
